Reference: PMC13197777, “Distinct 2-phenylimidazo[1,2-a]pyridine derivatives that inhibit breast cancer cell proliferation identified as AHR ligands” (iScience, 2026)

How the values were obtained:
MCF-7 luc = experiment: Clonogenic assay (clonal expansion), MCF-7 cells expressing wild-type ER; format: cell-based; conditions: Homo sapiens, MCF7, 336 h
Protocol: Cells were seeded at a density of 1–2×10^3 cells/well in a 6-well plate and treated with increasing concentrations of the X compounds for 14–21 days. Medium and compounds were renewed every 7 days. The experiments were terminated by fixing the cells with methanol and the colonies formed were visualized after staining with 0.5% crystal violet (w/v) in 20% methanol (v/v). Plates were photographed and the area covered by the colonies was calculated using the ColonyArea Plugin for Fiji (RRID:SCR_003070).[20]

ERα full-length = biological target: T1, ERα full-length (Homo sapiens, UniProt P03372); experiment: PolarScreen ERα Competitor Assay (fluorescence polarization); format: binding
T1 construct: 34 nM ERα full-length and 1.4 nM Fluormone EL Red were incubated; purchased ThermoFisher A15884
T1 sequence (P03372 1-595): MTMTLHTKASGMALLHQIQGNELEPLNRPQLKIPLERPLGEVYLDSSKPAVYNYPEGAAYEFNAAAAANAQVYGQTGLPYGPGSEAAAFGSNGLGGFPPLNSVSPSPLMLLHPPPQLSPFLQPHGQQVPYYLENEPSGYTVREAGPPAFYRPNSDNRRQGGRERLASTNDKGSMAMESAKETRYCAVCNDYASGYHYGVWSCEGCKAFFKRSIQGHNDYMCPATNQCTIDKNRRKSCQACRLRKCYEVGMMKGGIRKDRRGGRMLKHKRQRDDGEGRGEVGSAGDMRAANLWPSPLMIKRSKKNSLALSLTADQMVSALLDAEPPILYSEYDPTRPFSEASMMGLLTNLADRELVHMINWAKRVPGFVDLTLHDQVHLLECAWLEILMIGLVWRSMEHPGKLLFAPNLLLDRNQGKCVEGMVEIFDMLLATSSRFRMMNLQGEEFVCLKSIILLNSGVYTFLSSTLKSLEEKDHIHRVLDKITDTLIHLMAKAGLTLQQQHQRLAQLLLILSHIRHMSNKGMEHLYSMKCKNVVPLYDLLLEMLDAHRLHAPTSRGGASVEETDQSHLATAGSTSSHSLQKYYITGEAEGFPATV
Protocol: The PolarScreen Estrogen Receptor-Alpha Competitor Assay, Red (ThermoFisher, A15884) was used to determine if the X compounds bind to ERα. The assay was performed according to the manufacturer’s protocol.

AHR-Hsp90-XAP2 = biological target: T2, AHR-Hsp90-XAP2 (Homo sapiens, UniProt P35869); experiment: Thermal stability measurements (nano-DSF); format: binding; conditions: 2.5 μM protein, 12.5 μM compound
T2 construct: made in house
T2 sequence (P35869 11-437 limits assumed): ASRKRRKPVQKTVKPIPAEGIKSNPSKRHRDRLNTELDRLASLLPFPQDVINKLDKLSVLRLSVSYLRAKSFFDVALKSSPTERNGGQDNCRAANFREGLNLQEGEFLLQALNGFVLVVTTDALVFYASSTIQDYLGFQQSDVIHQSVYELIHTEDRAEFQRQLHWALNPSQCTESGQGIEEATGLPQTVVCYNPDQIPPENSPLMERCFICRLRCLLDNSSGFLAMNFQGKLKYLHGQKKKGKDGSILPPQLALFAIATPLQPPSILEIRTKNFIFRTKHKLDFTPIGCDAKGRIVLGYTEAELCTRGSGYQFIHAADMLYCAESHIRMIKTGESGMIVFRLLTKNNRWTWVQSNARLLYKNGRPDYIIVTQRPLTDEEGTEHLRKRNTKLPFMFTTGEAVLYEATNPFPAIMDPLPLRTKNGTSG
T2 sequence (P08238 whole entry partner): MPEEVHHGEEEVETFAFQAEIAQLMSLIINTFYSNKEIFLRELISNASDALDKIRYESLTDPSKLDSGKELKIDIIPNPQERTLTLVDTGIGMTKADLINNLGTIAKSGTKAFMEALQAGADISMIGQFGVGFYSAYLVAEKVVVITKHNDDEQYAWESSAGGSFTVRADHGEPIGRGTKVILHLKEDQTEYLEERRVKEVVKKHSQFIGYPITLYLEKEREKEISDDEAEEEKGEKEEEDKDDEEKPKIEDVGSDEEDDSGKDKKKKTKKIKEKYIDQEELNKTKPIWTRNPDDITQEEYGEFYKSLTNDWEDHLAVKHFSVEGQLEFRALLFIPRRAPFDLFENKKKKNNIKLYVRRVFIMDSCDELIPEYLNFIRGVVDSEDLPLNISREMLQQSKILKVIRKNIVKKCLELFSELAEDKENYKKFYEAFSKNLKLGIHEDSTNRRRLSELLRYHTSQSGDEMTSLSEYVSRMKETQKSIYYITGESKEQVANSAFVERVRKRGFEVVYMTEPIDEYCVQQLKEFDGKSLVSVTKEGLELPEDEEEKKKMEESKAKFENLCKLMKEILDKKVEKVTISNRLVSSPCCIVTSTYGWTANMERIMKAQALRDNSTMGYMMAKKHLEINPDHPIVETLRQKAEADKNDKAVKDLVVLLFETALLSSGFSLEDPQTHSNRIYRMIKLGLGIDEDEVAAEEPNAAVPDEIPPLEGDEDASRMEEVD
T2 sequence (O00170 whole entry partner): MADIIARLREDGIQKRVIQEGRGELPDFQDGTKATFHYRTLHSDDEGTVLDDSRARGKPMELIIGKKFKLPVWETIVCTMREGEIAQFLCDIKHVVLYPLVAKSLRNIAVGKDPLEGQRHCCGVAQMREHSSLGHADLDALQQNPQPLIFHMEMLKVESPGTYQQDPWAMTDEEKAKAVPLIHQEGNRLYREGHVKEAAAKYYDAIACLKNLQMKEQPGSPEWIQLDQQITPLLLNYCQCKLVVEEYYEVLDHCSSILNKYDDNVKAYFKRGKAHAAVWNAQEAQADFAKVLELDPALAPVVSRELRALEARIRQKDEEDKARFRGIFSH
Protocol: Thermal denaturation experiments of AHR complexes in the presence of compounds were performed using a Tycho NT.6 instrument (NanoTemper Technologies). Protein samples were prepared as previously described[67] and subsequently diluted in the buffer containing 20 mM Bis-Tris–HCl pH 7.0, 50 mM NaCl, 10 mM KCl, 10 mM MgCl2, 20 mM Na2MoO4 and 2 mM β-mercaptoethanol to a final protein concentration of 2.5 μM. Compound stock solutions were prepared at 20 mM in DMSO and added to the protein samples to yield a final concentration of 12.5 μM. For control measurements, DMSO was added to a final concentration of 5% (v/v). Following ligand or DMSO addition, the samples were gently mixed and incubated at room temperature for 10 min to allow equilibration. Thermal denaturation profiles were acquired over a temperature range of 35°C–95°C, with a heating rate of 1 °C per min. Fluorescence was monitored at emission wavelengths of 330 nm and 350 nm, and the data were analyzed as the first derivative of the fluorescence ratio (F330/F350) as a function of temperature. All experiments were performed in triplicate, and data were analyzed using the Tycho NT.6 software (NanoTemper Technologies) according to the manufacturer’s recommendations.

[1] = Figure 1C, MCF-7 luc + 10 nM E2, 14 days
[2] = Figure 1B, MCF-7 luc, absence of E2, 14 days

Row | Structure (SMILES) | IC50 (MCF-7 luc; [1]) | displacement of the Fluormone tracer from ERα (ERα full-length) | thermal stabilization of AHR (nano-DSF) (AHR-Hsp90-XAP2) | IC50 (MCF-7 luc; [2]) | IC50 (MCF-7 luc; Figure 1D, MCF-7 luc, absence of E2, 14 days) | IC50 (MCF-7 luc; Figure 1E, MCF-7 luc + 10 nM E2, 14 days)
1 | Cc1cc(Cl)c2nc(-c3ccccc3)cn2c1 [X19728] | 10.3 nM | did not | bona fide AHR ligands | – | – | –
2 | Cc1cc(Cl)c2nc(-c3ccc(F)cc3)cn2c1 [X19724] | 15.2 nM | did not | bona fide AHR ligands | 7.41 nM | – | –
3 | Fc1ccc(-c2cn3cc(C(F)(F)F)cc(Cl)c3n2)cc1 [X15695] | 7.96 nM | did not | bona fide AHR ligands | 2.45 nM | 2.45 nM | 7.96 nM
